Experimental data: patent US6787539B2, “2,4,5,-trisubstituted pyrimidine derivatives” (Hoffmann-La Roche Inc., priority 2000, dated 2004)

Each molecule was assayed against T1, human NK1 receptor (Homo sapiens, UniProt P25103) (assay: Affinity for the NK1 receptor, [3H]substance P displacement binding assay). Details: affinity to the NK-1 receptor; human NK1 receptors in CHO cells; [3H]substance P 0.6 nM; 60 min at room temperature.
T1 construct: expressed in transfected cells; host or cells: CHO cells infected using the Semliki virus expression system; membrane suspension
Experimental: The affinity of test compounds for the NK1 receptor was evaluated at human NK1 receptors in CHO cells infected with the human NK1 receptor (using the Semliki virus expression system) and radiolabelled with [^3H]substance P (final concentration 0.6 nM). Binding assays were performed in HEPES buffer (50 mM, pH 7.4) containing BSA (0.04%) leupeptin (8 μg/ml), MnCl2 (3 mM) and phosphoramidon (2 μM). Binding assays consisted of 250 μl of membrane suspension (1.25×10^5 cells/assay tube), […] of displacing agent and 125 μl of [^3H]substance P. Displacement curves were determined with at least seven concentrations of the compound. The assay tubes were incubated for 60 min at room temperature after which time the tube contents were rapidly filtered under vacuum through GF/C filters presoaked for 60 min with PEI (0.3%) with 2×2 ml washes of HEPES buffer (50 mM, pH 7.4). The radioactivity retained on the filters was measured by scintillation counting. All assays were performed in triplicate in at least 2 separate experiments.

T1 sequence (P25103 whole entry): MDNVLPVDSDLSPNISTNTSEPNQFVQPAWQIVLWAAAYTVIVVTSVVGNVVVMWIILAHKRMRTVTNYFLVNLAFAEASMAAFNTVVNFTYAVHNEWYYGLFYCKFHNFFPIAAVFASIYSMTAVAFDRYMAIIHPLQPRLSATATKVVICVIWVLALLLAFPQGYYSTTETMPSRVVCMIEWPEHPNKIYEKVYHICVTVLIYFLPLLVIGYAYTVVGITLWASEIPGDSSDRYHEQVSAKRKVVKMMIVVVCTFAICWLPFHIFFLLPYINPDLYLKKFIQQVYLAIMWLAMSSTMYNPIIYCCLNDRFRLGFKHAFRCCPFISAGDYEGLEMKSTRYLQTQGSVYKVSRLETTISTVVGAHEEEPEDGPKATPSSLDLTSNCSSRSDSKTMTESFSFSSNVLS

First: CN(C)CCCOc1ncc(N(C)C(=O)C(C)(C)c2cc(C(F)(F)F)cc(C(F)(F)F)c2)c(Oc2ccc(F)cc2)n1 [Example 63, 2-(3,5-Bis-trifluoromethyl-phenyl)-N-[2-(3-dimethylamino-propoxy)-4-(4-fluoro-phenoxy)-pyrimidin-5-yl]-N-methyl-isobutyramide]
Second: Cc1ccccc1Oc1nc(OCCN2CCOCC2)ncc1N(C)C(=O)C(C)(C)c1cc(C(F)(F)F)cc(C(F)(F)F)c1 [Example 52, 2-(3,5-Bis-trifluoromethyl-phenyl)-N-methyl-N-[2-(2-morpholin-4-yl-ethoxy)-4-o-tolyloxy-pyrimidin-5-yl]-isobutyramide]
The Ki of the first is 12-fold higher: 9.55 nM for the first, 0.794 nM for the second.

Compared with Cc1ccccc1Oc1nc(OCCN2CCOCC2)ncc1C(=O)N(C)Cc1cc(C(F)(F)F)cc(C(F)(F)F)c1 [Example 7, 2-(2-Morpholin-4-yl-ethoxy)-4-o-tolyloxy-pyrimidine-5-carboxylic acid (3,5-bis-trifluoromethyl-benzyl)-methyl-amide], Cc1ccccc1Oc1nc(N2CCN(C)CC2)ncc1C(=O)N(C)Cc1cc(C(F)(F)F)cc(C(F)(F)F)c1 [Example 4, 2-(4-Methyl-piperazin-1-yl)-4-o-tolyloxy-pyrimidine-5-carboxylic acid (3,5-bis-trifluoromethyl-benzyl)-methyl-amide] is 1.6-fold lower in Ki: 4.68 nM for the first, 2.88 nM for the second. The second binds more tightly here.

Going from CSc1ncc(C(=O)N(C)Cc2cc(C(F)(F)F)cc(C(F)(F)F)c2)c(Oc2ccccc2)n1 [Example 23, 2-Methylsulfanyl-4-phenoxy-pyrimidine-5-carboxylic acid (3,5-bis-trifluoromethyl-benzyl)-methyl-amide] to CSc1ncc(C(=O)N(C)Cc2cc(C(F)(F)F)cc(C(F)(F)F)c2)c(Oc2ccccc2C)n1 [Example 1, 2-Methylsulfanyl-4-o-tolyloxy-pyrimidine-5-carboxylic acid (3,5-bis-trifluoromethyl-benzyl)-methyl-amide], the Ki falls from 97.7 nM to 41.7 nM (2.3-fold). The second binds more tightly here.

First: COc1cc(CN(C)C(=O)c2cnc(N3CCN(C)CC3)nc2Oc2ccccc2C)cc(OC)c1 [Example 11, 2-(4-Methyl-piperazin-1-yl)-4-o-tolyloxy-pyrimidine-5-carboxylic acid (3,5-dimethoxy-benzyl)-methyl-amide]
Second: Cc1cc(C)cc(CN(C)C(=O)c2cnc(N3CCN(C)CC3)nc2Oc2ccccc2C)c1 [Example 15, 2-(4-Methyl-piperazin-1-yl)-4-o-tolyloxy-pyrimidine-5-carboxylic acid (3,5-dimethyl-benzyl)-methyl-amide]
The Ki of the first is 6-fold higher: 170 nM for the first, 28.2 nM for the second. The second binds more tightly here.

Cc1ccccc1Oc1nc(N2CCSCC2)ncc1C(=O)N(C)Cc1cc(C(F)(F)F)cc(C(F)(F)F)c1 [Example 44, 2-Thiomorpholin-4-yl-4-o-tolyloxy-pyrimidine-5-carboxylic acid (3,5-bis-trifluoromethyl-benzyl)-methyl-amide] and Cc1ccccc1Oc1nc(-c2ccncc2)ncc1C(=O)N(C)Cc1cc(C(F)(F)F)cc(C(F)(F)F)c1 [Example 39, 2-Pyridin-4-yl-4-o-tolyloxy-pyrimidine-5-carboxylic acid (3,5-bis-trifluoromethyl-benzyl)-methyl-amide] are within 1.5-fold of each other in Ki: 20 nM for the first, 16.2 nM for the second.

Compared with Cc1ccccc1Oc1nc(N2CCN(C)CC2)ncc1C(=O)NCc1cc(Cl)cc(Cl)c1 [Example 19, 2-(4-Methyl-piperazin-1-yl)-4-o-tolyloxy-pyrimidine-5-carboxylic acid 3,5-dichloro-benzylamide], Cc1ccccc1Oc1nc(N2CCN(C)CC2)ncc1N(C)C(=O)C(C)(C)c1cc(C(F)(F)F)cc(C(F)(F)F)c1 [Example 49, 2-(3,5-Bis-trifluoromethyl-phenyl)-N-methyl-N-[2-(4-methyl-piperazin-1-yl)-4-o-tolyloxy-pyrimidin-5-yl]-isobutyramide] is 210-fold lower in Ki: 195 nM for the first, 0.912 nM for the second. The second binds more tightly here.

In the case of Cc1ccccc1Oc1nc(-c2ccccc2)ncc1N(C)C(=O)C(C)(C)c1cc(C(F)(F)F)cc(C(F)(F)F)c1 [Example 73, 2-(3,5-Bis-trifluoromethyl-phenyl)-N-methyl-N-(2-phenyl-4-o-tolyloxy-pyrimidin-5-yl)-isobutyramide], the Ki is reported as 32.4 nM.

“4-(2-Methoxy-phenoxy)-2-(4-methyl-piperazin-1-yl)-pyrimidine-5-carboxylic acid (3,5-bis-trifluoromethyl-benzyl)-methyl-amide [Example 29]” showed a pKi of 6.50.
